Test results from patent US20200239530A1, “COMPOUNDS AND METHODS OF MODULATING PROTEIN DEGRADATION” (Vividion Therapeutics, Inc., priority 2017, published 2020).
Each block holds one compound with its values, some of them ahead of it.

Experiments:
Experiment in all cases: Competitive cysteine profiling of cell lysate with desthiobiotin iodoacetamide probe (96-well sample prep)
Type in all cases: binding
[1] = molecular target: T1, cysteine residue illustrated in Table 1A or Table 2A (Homo sapiens, UniProt Q5VU92); details: UniProt Q5VU92
T1 construct: Cells were resuspended in cold PBS on ice and sonicated with a probe sonicator to achieve lysis; endogenous in cells
T1 sequence (Q5VU92 whole entry): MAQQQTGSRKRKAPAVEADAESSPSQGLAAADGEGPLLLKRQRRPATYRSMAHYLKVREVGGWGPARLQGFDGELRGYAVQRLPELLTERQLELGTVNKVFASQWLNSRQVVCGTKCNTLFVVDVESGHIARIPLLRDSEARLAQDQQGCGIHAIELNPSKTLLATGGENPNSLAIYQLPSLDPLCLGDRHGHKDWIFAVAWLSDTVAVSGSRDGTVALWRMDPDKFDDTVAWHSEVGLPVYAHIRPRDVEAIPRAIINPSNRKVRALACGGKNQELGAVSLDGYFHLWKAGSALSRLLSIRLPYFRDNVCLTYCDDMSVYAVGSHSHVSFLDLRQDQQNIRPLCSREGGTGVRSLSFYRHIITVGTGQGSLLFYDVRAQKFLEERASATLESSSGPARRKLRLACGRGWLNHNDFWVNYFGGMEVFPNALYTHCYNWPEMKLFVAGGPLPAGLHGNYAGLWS
Summary of the method: (§1)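 Competitive profiling: compound and lysate (5 mg/ml protein) incubated 1 h at 25 °C before a 1 h, 25 °C desthiobiotin iodoacetamide probe step. Proteins were acetone-precipitated, reduced, alkylated and trypsinized; streptavidin-captured labelled peptides were eluted for MS analysis.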

[2] = molecular target: T2, cysteine residue illustrated in Table 1A or Table 2A (Homo sapiens, UniProt P49754); details: UniProt P49754; KB05 100 uM
T2 construct: Cells were resuspended in cold PBS on ice and sonicated with a probe sonicator to achieve lysis; endogenous in cells
T2 sequence (P49754 whole entry): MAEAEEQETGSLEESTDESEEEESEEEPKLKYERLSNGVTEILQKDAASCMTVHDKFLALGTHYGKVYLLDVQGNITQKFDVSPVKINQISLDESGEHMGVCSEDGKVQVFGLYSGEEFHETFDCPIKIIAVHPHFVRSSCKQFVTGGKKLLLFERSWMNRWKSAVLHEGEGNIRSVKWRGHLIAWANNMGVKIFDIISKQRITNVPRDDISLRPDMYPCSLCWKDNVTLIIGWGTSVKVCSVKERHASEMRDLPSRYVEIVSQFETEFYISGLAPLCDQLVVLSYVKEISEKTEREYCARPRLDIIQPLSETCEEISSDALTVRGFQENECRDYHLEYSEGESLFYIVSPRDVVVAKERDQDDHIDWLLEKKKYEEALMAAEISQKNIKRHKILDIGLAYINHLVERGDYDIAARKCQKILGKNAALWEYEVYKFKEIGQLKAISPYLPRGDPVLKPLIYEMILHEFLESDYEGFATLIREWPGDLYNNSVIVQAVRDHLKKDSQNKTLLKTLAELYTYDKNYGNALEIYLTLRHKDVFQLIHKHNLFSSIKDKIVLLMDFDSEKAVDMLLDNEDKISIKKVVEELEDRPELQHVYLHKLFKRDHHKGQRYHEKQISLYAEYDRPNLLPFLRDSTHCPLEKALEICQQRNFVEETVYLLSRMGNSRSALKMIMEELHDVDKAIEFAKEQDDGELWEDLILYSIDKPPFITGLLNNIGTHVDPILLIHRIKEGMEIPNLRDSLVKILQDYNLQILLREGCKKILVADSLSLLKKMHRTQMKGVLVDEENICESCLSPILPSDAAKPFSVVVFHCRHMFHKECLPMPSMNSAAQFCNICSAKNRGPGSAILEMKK
Summary of the method: as §1

[3] = molecular target: T3, cysteine residue illustrated in Table 1A or Table 2A (Homo sapiens, UniProt Q86Y01); details: UniProt Q86Y01; 100 uM
T3 construct: Cells were resuspended in cold PBS on ice and sonicated with a probe sonicator to achieve lysis; endogenous in cells
T3 sequence (Q86Y01 whole entry): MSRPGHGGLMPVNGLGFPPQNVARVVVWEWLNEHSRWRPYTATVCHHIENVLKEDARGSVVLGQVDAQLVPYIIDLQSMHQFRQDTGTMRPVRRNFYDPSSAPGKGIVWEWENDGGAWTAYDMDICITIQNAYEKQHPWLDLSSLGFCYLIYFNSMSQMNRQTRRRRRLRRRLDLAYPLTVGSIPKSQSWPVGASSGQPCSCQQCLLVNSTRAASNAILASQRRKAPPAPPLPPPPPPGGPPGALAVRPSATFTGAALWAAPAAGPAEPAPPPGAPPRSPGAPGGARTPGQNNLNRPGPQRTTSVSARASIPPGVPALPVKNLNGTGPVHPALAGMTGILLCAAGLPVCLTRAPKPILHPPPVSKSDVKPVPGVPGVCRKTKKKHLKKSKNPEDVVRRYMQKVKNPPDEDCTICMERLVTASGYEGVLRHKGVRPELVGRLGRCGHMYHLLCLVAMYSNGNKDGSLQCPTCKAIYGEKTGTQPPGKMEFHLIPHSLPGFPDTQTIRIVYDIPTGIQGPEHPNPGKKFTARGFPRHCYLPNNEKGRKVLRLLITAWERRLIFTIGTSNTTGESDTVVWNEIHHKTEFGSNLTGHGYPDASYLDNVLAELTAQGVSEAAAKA
Summary of the method: as §1

[4] = molecular target: T4, cysteine residue illustrated in Table 1A or Table 2A (Homo sapiens, UniProt Q7Z6J8); details: UniProt Q7Z6J8; KB05 100 uM
T4 construct: Cells were resuspended in cold PBS on ice and sonicated with a probe sonicator to achieve lysis; endogenous in cells
T4 sequence (Q7Z6J8 whole entry): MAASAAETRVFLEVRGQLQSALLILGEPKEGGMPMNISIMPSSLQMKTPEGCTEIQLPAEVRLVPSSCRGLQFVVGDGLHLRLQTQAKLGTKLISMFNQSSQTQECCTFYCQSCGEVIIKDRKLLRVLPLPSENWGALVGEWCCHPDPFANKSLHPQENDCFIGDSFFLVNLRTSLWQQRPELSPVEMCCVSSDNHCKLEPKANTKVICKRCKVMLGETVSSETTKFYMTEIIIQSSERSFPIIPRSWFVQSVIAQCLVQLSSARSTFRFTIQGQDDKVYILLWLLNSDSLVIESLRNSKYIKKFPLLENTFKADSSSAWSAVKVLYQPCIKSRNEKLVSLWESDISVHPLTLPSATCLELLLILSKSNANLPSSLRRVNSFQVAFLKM
Summary of the method: as §1

[5] = molecular target: T5, cysteine residue illustrated in Table 1A or Table 2A (Homo sapiens, UniProt P55774); details: UniProt P55774
T5 construct: Cells were resuspended in cold PBS on ice and sonicated with a probe sonicator to achieve lysis; endogenous in cells
T5 sequence (P55774 21-89): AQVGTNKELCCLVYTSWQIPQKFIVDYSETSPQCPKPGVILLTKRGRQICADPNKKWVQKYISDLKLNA
Summary of the method: as §1

[6] = molecular target: T6, cysteine residue illustrated in Table 1A or Table 2A (Homo sapiens, UniProt O95159); details: UniProt O95159; KB03 100 uM
T6 construct: Cells were resuspended in cold PBS on ice and sonicated with a probe sonicator to achieve lysis; endogenous in cells
Summary of the method: as §1

[7] = molecular target: T7, cysteine residue illustrated in Table 1A or Table 2A (Homo sapiens, UniProt Q9H0M0); details: UniProt Q9H0M0; KB03 100 uM
T7 construct: Cells were resuspended in cold PBS on ice and sonicated with a probe sonicator to achieve lysis; endogenous in cells
T7 sequence (Q9H0M0 whole entry): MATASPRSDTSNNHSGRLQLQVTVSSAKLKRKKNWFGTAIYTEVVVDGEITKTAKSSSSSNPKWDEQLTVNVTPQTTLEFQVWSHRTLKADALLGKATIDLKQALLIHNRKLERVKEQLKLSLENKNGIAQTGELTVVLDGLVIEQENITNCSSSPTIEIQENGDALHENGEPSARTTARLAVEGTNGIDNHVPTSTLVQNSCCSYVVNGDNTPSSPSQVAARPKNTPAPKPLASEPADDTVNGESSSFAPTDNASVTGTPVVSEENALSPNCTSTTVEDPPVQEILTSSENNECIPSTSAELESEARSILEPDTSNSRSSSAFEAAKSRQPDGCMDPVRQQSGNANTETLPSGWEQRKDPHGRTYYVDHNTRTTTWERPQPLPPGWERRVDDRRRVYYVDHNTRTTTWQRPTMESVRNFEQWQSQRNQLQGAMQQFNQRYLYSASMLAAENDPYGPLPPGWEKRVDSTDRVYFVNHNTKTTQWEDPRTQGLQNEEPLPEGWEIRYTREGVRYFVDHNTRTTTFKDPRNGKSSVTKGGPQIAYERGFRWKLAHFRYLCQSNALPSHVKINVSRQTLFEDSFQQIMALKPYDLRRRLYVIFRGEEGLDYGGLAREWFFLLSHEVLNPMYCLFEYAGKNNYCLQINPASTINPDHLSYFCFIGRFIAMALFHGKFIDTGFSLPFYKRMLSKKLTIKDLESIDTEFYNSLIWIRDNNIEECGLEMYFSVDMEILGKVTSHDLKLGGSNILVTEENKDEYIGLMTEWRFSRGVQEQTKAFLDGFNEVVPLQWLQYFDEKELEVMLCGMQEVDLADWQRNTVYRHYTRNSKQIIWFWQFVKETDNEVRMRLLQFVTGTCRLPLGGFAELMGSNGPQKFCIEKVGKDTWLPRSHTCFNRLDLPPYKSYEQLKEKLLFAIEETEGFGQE
Summary of the method: as §1

[8] = molecular target: T8, cysteine residue illustrated in Table 1A or Table 2A (Homo sapiens, UniProt Q58WW2); details: UniProt Q58WW2; 100 uM
T8 construct: Cells were resuspended in cold PBS on ice and sonicated with a probe sonicator to achieve lysis; endogenous in cells
Summary of the method: as §1

[9] = molecular target: T9, cysteine residue illustrated in Table 1A or Table 2A (Homo sapiens, UniProt Q5T4S7); details: UniProt Q5T4S7; KB03 500 uM
T9 construct: Cells were resuspended in cold PBS on ice and sonicated with a probe sonicator to achieve lysis; endogenous in cells
Summary of the method: as §1

[10] = molecular target: T10, cysteine residue illustrated in Table 1A or Table 2A (Homo sapiens, UniProt Q9UBI1); details: UniProt Q9UBI1; 500 uM
T10 construct: Cells were resuspended in cold PBS on ice and sonicated with a probe sonicator to achieve lysis; endogenous in cells
T10 sequence (Q9UBI1 whole entry): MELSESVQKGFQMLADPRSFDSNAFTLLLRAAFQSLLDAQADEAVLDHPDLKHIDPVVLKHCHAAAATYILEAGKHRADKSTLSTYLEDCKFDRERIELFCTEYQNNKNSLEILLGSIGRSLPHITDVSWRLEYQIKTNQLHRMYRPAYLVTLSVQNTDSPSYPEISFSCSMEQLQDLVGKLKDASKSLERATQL
Summary of the method: as §1

[11] = molecular target: T11, cysteine residue illustrated in Table 1A or Table 2A (Homo sapiens, UniProt Q13617); details: UniProt Q13617; 100 uM
T11 construct: Cells were resuspended in cold PBS on ice and sonicated with a probe sonicator to achieve lysis; endogenous in cells
T11 sequence (Q13617 whole entry): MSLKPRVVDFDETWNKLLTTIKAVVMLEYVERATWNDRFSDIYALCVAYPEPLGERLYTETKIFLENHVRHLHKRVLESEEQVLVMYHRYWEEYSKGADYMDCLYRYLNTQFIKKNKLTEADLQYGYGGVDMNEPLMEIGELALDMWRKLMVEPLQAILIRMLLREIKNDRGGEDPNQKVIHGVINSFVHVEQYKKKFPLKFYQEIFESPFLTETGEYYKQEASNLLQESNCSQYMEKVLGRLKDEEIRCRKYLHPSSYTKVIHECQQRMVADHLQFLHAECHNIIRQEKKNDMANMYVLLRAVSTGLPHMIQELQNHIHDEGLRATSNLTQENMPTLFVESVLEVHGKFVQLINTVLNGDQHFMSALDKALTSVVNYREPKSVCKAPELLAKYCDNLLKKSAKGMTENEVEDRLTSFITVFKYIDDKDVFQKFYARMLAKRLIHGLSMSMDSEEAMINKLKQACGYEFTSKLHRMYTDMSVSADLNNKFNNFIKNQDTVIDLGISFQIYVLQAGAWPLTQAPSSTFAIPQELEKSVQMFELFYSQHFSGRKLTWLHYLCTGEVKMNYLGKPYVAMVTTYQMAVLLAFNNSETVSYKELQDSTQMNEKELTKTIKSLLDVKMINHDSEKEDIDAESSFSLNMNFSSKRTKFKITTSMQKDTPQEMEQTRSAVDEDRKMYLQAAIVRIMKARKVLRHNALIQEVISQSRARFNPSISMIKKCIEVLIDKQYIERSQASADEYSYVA
Summary of the method: as §1

[12] = molecular target: T12, cysteine residue illustrated in Table 1A or Table 2A (Homo sapiens, UniProt O76080); details: UniProt O76080; KB03 100 uM
T12 construct: Cells were resuspended in cold PBS on ice and sonicated with a probe sonicator to achieve lysis; endogenous in cells
T12 sequence (O76080 whole entry): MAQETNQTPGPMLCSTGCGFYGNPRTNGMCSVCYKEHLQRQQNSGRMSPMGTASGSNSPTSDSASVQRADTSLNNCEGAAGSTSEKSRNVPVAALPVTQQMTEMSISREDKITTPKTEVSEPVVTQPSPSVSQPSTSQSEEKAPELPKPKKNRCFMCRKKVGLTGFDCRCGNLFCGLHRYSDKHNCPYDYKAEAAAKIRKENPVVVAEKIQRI
Summary of the method: as §1

[13] = molecular target: T13, cysteine residue illustrated in Table 1A or Table 2A (Homo sapiens, UniProt Q6FIF0); details: UniProt Q6FIF0; KB03 100 uM
T13 construct: Cells were resuspended in cold PBS on ice and sonicated with a probe sonicator to achieve lysis; endogenous in cells
T13 sequence (Q6FIF0 whole entry): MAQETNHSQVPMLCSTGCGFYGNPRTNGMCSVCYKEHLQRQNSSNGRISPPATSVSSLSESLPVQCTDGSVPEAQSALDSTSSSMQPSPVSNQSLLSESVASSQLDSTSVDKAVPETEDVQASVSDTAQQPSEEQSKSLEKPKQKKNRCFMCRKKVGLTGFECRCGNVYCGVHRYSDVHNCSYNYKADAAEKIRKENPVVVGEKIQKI
Summary of the method: as §1

SMILES: COc1ccc2c(c1)CCCN2C(=O)CCl [KB02]
KB02_100 uM_percent_inhibition ([1]; 100 uM): 25% | KB02_500 uM_percent_inhibition ([1]; 500 uM): 29%

KB05_100 uM_percent_inhibition [2]: 10% | KB05_100 uM_percent_inhibition [3]: 17% | KB05_100 uM_percent_inhibition [4]: 13% | KB05_100 uM_percent_inhibition ([5]; 100 uM): 5% | KB05_500 uM_percent_inhibition ([5]; 500 uM): 51%
SMILES: C=CC(=O)N(c1ccccc1)c1ccc(Br)cc1 [KB05]

SMILES: O=C(CCl)Nc1cc(C(F)(F)F)cc(C(F)(F)F)c1 [KBO3]
KB03_100 uM_percent_inhibition [6]: 15% | KB03_100 uM_percent_inhibition [7]: 61% | KB03_100 uM_percent_inhibition [8]: 67% | KB03_500 uM_percent_inhibition [9]: 69% | KB03_500 uM_percent_inhibition [10]: 29% | KB03_100 uM_percent_inhibition [11]: 30% | KB03_100 uM_percent_inhibition [12]: 14% | KB03_100 uM_percent_inhibition [13]: 8%
